BindingDB's records for doi:10.1016/S0960-894X(97)00083-8 (1997)

Target: Integrin alpha-IIb/beta-3 (Homo sapiens, UniProt P08514+P05106)
Assay: ChEBML_215984

Chain of Integrin alpha-IIb/beta-3 (P05106 27-788 limits assumed): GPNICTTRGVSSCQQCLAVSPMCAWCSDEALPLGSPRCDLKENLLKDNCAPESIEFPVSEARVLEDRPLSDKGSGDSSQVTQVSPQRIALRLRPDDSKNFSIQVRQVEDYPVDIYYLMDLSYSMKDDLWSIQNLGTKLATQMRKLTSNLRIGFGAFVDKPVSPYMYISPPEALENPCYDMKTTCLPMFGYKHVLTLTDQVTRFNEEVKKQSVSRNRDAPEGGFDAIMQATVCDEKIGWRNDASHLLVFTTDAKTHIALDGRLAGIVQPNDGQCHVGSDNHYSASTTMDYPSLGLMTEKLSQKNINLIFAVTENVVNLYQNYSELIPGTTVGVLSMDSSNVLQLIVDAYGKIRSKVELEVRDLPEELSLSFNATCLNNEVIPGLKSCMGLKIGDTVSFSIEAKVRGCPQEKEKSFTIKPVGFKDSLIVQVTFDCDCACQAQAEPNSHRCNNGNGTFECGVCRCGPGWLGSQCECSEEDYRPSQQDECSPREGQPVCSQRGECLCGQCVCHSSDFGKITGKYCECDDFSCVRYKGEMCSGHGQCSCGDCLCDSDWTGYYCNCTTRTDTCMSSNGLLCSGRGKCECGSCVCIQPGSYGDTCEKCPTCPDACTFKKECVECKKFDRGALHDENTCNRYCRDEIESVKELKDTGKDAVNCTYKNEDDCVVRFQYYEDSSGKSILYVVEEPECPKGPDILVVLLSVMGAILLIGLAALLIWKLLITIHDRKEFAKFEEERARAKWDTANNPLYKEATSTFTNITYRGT
Chain of Integrin alpha-IIb/beta-3 (P08514 32-887 limits assumed): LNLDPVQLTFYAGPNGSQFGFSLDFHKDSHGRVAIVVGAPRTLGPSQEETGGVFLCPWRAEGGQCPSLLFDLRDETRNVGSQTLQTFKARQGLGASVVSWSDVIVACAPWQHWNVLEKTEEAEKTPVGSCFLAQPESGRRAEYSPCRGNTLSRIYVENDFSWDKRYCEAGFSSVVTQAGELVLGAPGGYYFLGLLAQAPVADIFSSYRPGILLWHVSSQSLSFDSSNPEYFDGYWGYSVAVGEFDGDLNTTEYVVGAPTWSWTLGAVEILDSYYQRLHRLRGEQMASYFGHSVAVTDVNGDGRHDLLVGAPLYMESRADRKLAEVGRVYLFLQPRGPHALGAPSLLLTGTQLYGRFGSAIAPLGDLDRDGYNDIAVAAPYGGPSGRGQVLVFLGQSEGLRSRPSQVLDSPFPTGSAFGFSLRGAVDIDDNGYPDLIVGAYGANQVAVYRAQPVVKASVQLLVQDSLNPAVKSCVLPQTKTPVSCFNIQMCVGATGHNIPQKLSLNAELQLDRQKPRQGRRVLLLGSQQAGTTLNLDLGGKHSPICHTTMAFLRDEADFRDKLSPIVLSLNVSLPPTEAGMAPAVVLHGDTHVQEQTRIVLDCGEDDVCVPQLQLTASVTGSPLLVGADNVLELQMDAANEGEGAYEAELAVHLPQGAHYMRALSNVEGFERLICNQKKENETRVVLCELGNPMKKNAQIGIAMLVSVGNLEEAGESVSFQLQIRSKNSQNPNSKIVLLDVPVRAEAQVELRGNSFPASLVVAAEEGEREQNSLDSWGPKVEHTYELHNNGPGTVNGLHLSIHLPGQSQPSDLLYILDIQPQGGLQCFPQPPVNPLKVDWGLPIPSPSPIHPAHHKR
Chain of Integrin alpha-IIb/beta-3 (P08514 891-1039 limits assumed): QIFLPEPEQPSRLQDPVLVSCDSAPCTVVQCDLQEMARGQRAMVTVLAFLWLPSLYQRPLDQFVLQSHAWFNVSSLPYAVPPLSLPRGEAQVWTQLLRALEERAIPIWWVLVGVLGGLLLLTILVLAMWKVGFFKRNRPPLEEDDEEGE

CC(C)C1CN(C)C(CCCN=C(N)NC(=O)c2ccc(N=[N][Tc]345(=[P@SP2](c6ccc([S@TB1](=O)(=O)O)cc6)(c6ccccc6S(=O)(=O)O)c6ccccc6[S@TB1](=O)(=O)O)[O]CC[N]3C(CO)(C[O]4)C[O]5)nc2)C(=O)NCC(=O)NC(CC(=O)O)C(=O)NCc2cc(NC(=O)CCCCCN)cc(c2)C(=O)N1 (stereo unspecified) [RP-444]
IC50: 13 nM
